System: Male Sprague Dawley rats
Test: Charcoal transit model of postoperative ileus (POI) after cecum manipulation
Type: in vivo, rat
Conditions: for Prevention of POI (in words): delivered via gel to the manipulated intestines; for % GI Transfer: 4 h after oral charcoal meal; for Dose response of the effect on POI (in words): low versus high dose gel formulations
Text: The charcoal transit model is an acceptable and established model to study the effects of abdominal surgery on intestinal motility. We followed the procedure as described by De Winter et al. (1997) (Reference: Effect of adrenergic and nitrergic blockade on experimental ileus in rats. British Journal of Pharmacology (1997) 120, 464-468. Benedicte Y. De Winter, Guy E. Boeckxstaens, Joris G. De Man, Tom G. Moreels, Arnold G. Herman & Paul A. Pelckmans). The model simulates the abdominal procedure in human and tests for gastric emptying and intestinal motility by the transfer of a charcoal meal fed to the animals.
Male Sprague Dawley rats, weighing 250-275 g (8 in group) were anesthetized with a xylazine/ketamine cocktail, injected IM, the abdomen was shaved and disinfected with alcohol and Betadyne. A 2.5 cm incision was made from the xyphoid process caudally. The intestinal contents was exteriorized onto wet gauze. The cecum was manipulated gently for 1 minute. The abdominal contents were replaced, the treatment was applied, and the body wall was closed with 4-0 PDS for the fascia and muscle layers. The skin was closed with wound clips. In addition, two control groups were tested as well: incision only and naïve. Treatment groups included two control groups, surgery (incision only) and naïve, and two treatment groups, a high and low dose of Diclofenac, as well as 3 wt % Na-CMC gel alone. The high and low dose of Diclofenac, as well as the 3 wt % Na-CMC gel were prepared as described above. 8 rats were included in each group with a total of 40 rats.
The rats were treated with an oral solution of charcoal (10%) in acacia gum (2%). Four hours following oral administration rats were euthanized with Euthasole. The intestines were exteriorized and the distance traveled by the charcoal meal was measured as well as the full length of the intestines (from the pylorus through the anus). Results are expressed as percent of distance traveled relative to the full length of the intestines.
Male Sprague Dawley rats, weighing 250-275 g (8 in group) were anesthetized with a xylazine/ketamine cocktail, injected IM, the abdomen was shaved and disinfected with alcohol and Betadyne. A 2.5 cm incision was made from the xyphoid process caudally. The intestinal contents was exteriorized onto wet gauze. The cecum was manipulated gently for 1 minute. The abdominal contents were replaced, the treatment was applied, and the body wall was closed with 4-0 PDS for the fascia and muscle layers. The skin was closed with wound clips. In addition, two control groups were tested as well: incision only and naïve. Treatment groups included two control groups, surgery (incision only) and naïve, and 4 treatment groups, a high and low dose of Diclofenac, a high and a low dose of Naproxen, as well as 3 wt % Na-CMC gel alone. The high and low dose of Diclofenac, as well as the 3 wt % Na-CMC gel were prepared as described above. 8 rats were included in each group with a total of 56 rats.

[1] = Example 2, both doses (0.3 and 2.0 mg) in gel, compared with non-treated and gel-alone animals
[2] = Example 2, high dose 2.0 mg in 3 wt % Na-CMC gel applied after intestinal manipulation
[3] = Example 2, low dose 0.3 mg in 3 wt % Na-CMC gel applied after intestinal manipulation

In the case of `O=C(O)Cc1ccccc1Nc1c(Cl)cccc1Cl` [Diclofenac-Na, Diclofenac sodium], the “Prevention of POI (in words)” value (Example 1, high dose, listed as Diclofenac sodium) is reported as “complete prevention”, the “Prevention of POI (in words)” value (Example 1, high dose, listed as diclofenac) is reported as “completely alleviated the POI” and the “% GI Transfer” value (Example 1, listed as 'Diclofenac-Na high', dose printed 0.3 mg, in 3 wt % Na-CMC gel applied after intestinal manipulation, distance traveled relative to full intestine length) is reported as 73.58%. For the same compound, the “% GI Transfer” value (Example 1, listed as 'Diclofenac-Na low', dose printed 1.0 mg, in 3 wt % Na-CMC gel applied after intestinal manipulation, distance traveled relative to full intestine length) was 95.05%, the “Prevention of POI (in words)” value (Example 1, low dose) was “significant prevention of POI” and the “Dose response of the effect on POI (in words)” value (from here on “Dose response of the effect”) was “dose related manner”.
For `O=C(c1ccccc1)c1ccc2n1CCC2C(=O)O` (stereo not drawn) [Ketorolac], the “Alleviation of POI (in words)” value [1] was “significant alleviation of the POI”, the “% GI Transfer” value [2] was 69.84% and the “% GI Transfer” value [3] was 70.99%. The “Dose response of the effect” value was “dose response was not observed”.
In the case of `COc1ccc2cc([C@H](C)C(=O)O)ccc2c1` [Naproxen], the “Alleviation of POI (in words)” value [1] is reported as “both doses improved on the gastric emptying and intestinal transfer”, the “% GI Transfer” value [2] is reported as 65.34% and the “Alleviation of POI (in words)” value (Example 2, high dose (2.0 mg) in gel) is reported as “not completely curative”. For the same compound, the “% GI Transfer” value [3] was 56.9% and the “Dose response of the effect” value was “dose related prevention of the POI”.
